Measurements from patent publication US7632933B2, “Corticotropin releasing factor 2 receptor agonists” (priority 2002, dated 2009).
Like-named read-outs stand apart in the source and are kept apart here. Ends that are not written are not given here. Peptide text beside a SMILES is read from it.

Key:
CRF2R = biological target: T1, CRF2R (Homo sapiens, UniProt Q13324); assay: CRF2R agonist activity (EC50 and Emax), called comparative CRF binding; format: cell-based
T1 sequence (Q13324 1-411): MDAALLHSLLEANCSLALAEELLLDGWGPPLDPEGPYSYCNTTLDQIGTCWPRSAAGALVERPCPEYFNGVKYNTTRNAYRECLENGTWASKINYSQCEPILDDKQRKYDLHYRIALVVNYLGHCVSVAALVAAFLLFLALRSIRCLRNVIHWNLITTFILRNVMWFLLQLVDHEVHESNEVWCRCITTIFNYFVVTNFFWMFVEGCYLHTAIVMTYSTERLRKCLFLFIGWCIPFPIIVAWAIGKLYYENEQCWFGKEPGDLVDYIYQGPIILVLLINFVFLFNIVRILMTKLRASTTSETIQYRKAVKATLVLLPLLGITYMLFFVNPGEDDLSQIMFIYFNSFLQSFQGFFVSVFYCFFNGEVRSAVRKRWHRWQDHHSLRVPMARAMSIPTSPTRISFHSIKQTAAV
How it was run: (§1)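 Steps: express single CRFR subtype in cells; add peptide or vehicle; prepare lysates or quantify CRE-linked reporter (e.g. luciferase, CAT, GFP, alkaline phosphatase) to gauge cAMP increase.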

CRF1R = biological target: T2, CRF1R (Homo sapiens, UniProt P34998); assay: CRF1R agonist activity (EC50 and Emax), called comparative CRF binding; format: cell-based
T2 sequence (P34998 24-415): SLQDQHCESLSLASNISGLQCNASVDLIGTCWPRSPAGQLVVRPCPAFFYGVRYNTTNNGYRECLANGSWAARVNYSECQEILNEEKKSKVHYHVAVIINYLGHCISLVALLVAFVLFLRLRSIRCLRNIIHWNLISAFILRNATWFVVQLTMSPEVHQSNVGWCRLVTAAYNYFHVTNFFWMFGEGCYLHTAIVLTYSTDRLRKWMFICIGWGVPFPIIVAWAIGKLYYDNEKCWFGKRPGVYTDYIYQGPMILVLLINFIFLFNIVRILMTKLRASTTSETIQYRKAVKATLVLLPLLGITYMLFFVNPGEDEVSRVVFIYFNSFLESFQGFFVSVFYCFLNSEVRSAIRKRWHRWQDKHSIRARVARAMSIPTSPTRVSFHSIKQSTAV
How it was run: as §1

| Molecule | EC50 (CRF2R; CRF2R, read-out: CRF2R EC50) [nM] | EC50 (CRF1R; CRF1R, read-out: CRF1R EC50) [nM] | other results |
| --- | --- | --- | --- |
| CC[C@H](C)[C@H](NC(=O)[C@H](C)NC(=O)[C@H](CC(N)=O)NC(=O)[C@H](CCC(N)=O)NC(=O)[C@H](CCC(=O)O)NC(=O)[C@H](C)NC(=O)[C@H](CCCNC(=N)N)NC(=O)[C@H](CCC(=O)O)NC(=O)[C@H](CCCNC(=N)N)NC(=O)[C@H](CCC(N)=O)NC(=O)[C@H](CO)NC(=O)[C@H](CCC(N)=O)NC(=O)[C@@H](NC(=O)[C@H](CCCNC(=N)N)NC(=O)[C@H](C)NC(=O)[C@H](CC(C)C)NC(=O)[C@H](CCC(=O)O)NC(=O)[C@H](CC(C)C)NC(=O)[C@H](CC(C)C)NC(=O)[C@@H](NC(=O)[C@H](CCCNC(=N)N)NC(=O)[C@H](CC(C)C)NC(=O)[C@H](CC(C)C)NC(=O)[C@H](Cc1ccc(O)cc1)NC(=O)[C@H](CCC(N)=O)NC(=O)[C@@H]1CCCN1C(=O)[C@H](CC(C)C)NC(=O)[C@H](CC(=O)O)NC(=O)[C@@H](NC(=O)[C@H](CO)NC(=O)[C@H](CC(C)C)NC(=O)[C@H](CO)NC(=O)[C@@H]1CCCN1C(=O)[C@H](CC(N)=O)NC(=O)[C@@H](N)CC(=O)O)[C@@H](C)CC)[C@@H](C)O)[C@@H](C)O)C(=O)N[C@H](C(=O)N[C@@H](Cc1ccccc1)C(=O)N[C@@H](C)C(=O)N[C@@H](CO)C(=O)N[C@H](C(N)=O)C(C)C)[C@@H](C)CC [compound 339] (H-DNPSLSIDLPQYLLRTLLELARTQSQRERAEQNAIIFASV-NH2) | ≥ 100 | ≥ 1000 | – |
| CC[C@H](C)[C@H](NC(=O)[C@H](C)NC(=O)[C@H](CC(N)=O)NC(=O)[C@H](CCC(N)=O)NC(=O)[C@H](CCC(=O)O)NC(=O)[C@H](C)NC(=O)[C@H](CCCNC(=N)N)NC(=O)[C@H](CCC(=O)O)NC(=O)[C@H](CCCNC(=N)N)NC(=O)[C@H](CCC(N)=O)NC(=O)[C@H](CO)NC(=O)[C@H](CCC(N)=O)NC(=O)[C@@H](NC(=O)[C@H](CCCCN)NC(=O)[C@H](CCC(=O)O)NC(=O)[C@H](CC(C)C)NC(=O)[C@H](CCC(=O)O)NC(=O)[C@H](CC(C)C)NC(=O)[C@H](CC(C)C)NC(=O)[C@@H](NC(=O)[C@H](CCCNC(=N)N)NC(=O)[C@H](CC(C)C)NC(=O)[C@H](CC(C)C)NC(=O)[C@H](CCC(N)=O)NC(=O)[C@H](CC(C)C)NC(=O)[C@@H]1CCCN1C(=O)[C@H](CC(C)C)NC(=O)[C@H](CC(=O)O)NC(=O)[C@@H](NC(=O)[C@H](CO)NC(=O)[C@H](CC(C)C)NC(=O)[C@H](CO)NC(=O)[C@@H]1CCCN1C(=O)[C@H](CC(N)=O)NC(=O)[C@@H](N)CC(=O)O)[C@@H](C)CC)[C@@H](C)O)[C@@H](C)O)C(=O)N[C@H](C(=O)N[C@@H](Cc1ccccc1)C(=O)N[C@@H](C)C(=O)N[C@@H](CO)C(=O)N[C@H](C(N)=O)C(C)C)[C@@H](C)CC [compound 342] (H-DNPSLSIDLPLQLLRTLLELEKTQSQRERAEQNAIIFASV-NH2; N-terminus assumed) | 20.3 | ≥ 1000 | – |
| CC[C@H](C)[C@H](N)C(=O)N[C@H](C(=O)N[C@@H](CC(C)C)C(=O)N[C@@H](CO)C(=O)N[C@@H](CC(C)C)C(=O)N[C@@H](CC(=O)O)C(=O)N[C@H](C(=O)N1CCC[C@H]1C(=O)N[C@H](C(=O)NCC(=O)N[C@@H](CC(C)C)C(=O)N[C@@H](CC(C)C)C(=O)N[C@@H](CCC(N)=O)C(=O)N[C@H](C(=O)N[C@@H](CC(C)C)C(=O)N[C@@H](CC(C)C)C(=O)N[C@@H](CCC(=O)O)C(=O)N[C@@H](CCCCN)C(=O)N[C@@H](C)C(=O)N[C@@H](C)C(=O)N[C@@H](C)C(=O)N[C@@H](CCC(=O)O)C(=O)N[C@@H](C)C(=O)N[C@@H](CCC(=O)O)C(=O)N[C@@H](C)C(=O)N[C@@H](C)C(=O)N[C@@H](C)C(=O)N[C@@H](CCCCN)C(=O)N[C@@H](C)C(=O)N[C@@H](C)C(=O)N[C@@H](CCC(N)=O)C(=O)N[C@@H](CCC(=O)O)C(=O)N[C@@H](CCC(N)=O)C(=O)N[C@H](C(=O)N[C@@H](CC(C)C)C(=O)N[C@@H](C)C(=O)N[C@@H](Cc1c[nH]cn1)C(=O)N[C@H](C(N)=O)C(C)C)[C@@H](C)CC)[C@@H](C)CC)[C@@H](C)CC)C(C)C)C(C)C [compound 366] (H-IVLSLDVPIGLLQILLEKAAAEAEAAAKAAQEQILAHV-NH2) | ≥ 100 | ≥ 1000 | – |
| CC[C@H](C)[C@H](N)C(=O)N[C@H](C(=O)N[C@@H](CC(C)C)C(=O)N[C@@H](CO)C(=O)N[C@@H](CC(C)C)C(=O)N[C@@H](CC(=O)O)C(=O)N[C@H](C(=O)N1CCC[C@H]1C(=O)N[C@H](C(=O)NCC(=O)N[C@@H](CC(C)C)C(=O)N[C@@H](CC(C)C)C(=O)N[C@@H](CCC(N)=O)C(=O)N[C@H](C(=O)N[C@@H](CC(C)C)C(=O)N[C@@H](CC(C)C)C(=O)N[C@@H](CCC(=O)O)C(=O)N[C@@H](CCC(N)=O)C(=O)N[C@@H](C)C(=O)N[C@@H](CCCNC(=N)N)C(=O)N[C@@H](Cc1c[nH]cn1)C(=O)N[C@@H](C)C(=O)N[C@@H](Cc1c[nH]cn1)C(=O)N[C@@H](C)C(=O)N[C@@H](Cc1c[nH]cn1)C(=O)N[C@@H](C)C(=O)N[C@@H](Cc1c[nH]cn1)C(=O)N[C@@H](C)C(=O)N[C@@H](Cc1c[nH]cn1)C(=O)N[C@@H](C)C(=O)N[C@@H](CCC(N)=O)C(=O)N[C@@H](C)C(=O)N[C@@H](Cc1c[nH]cn1)C(=O)N[C@H](C(=O)N[C@@H](CC(C)C)C(=O)N[C@@H](C)C(=O)N[C@@H](Cc1c[nH]cn1)C(=O)N[C@H](C(N)=O)C(C)C)[C@@H](C)CC)[C@@H](C)CC)[C@@H](C)CC)C(C)C)C(C)C [compound 369] (H-IVLSLDVPIGLLQILLEQARHAHAHAHAHAQAHILAHV-NH2) | ≥ 100 | ≥ 1000 | – |
| CC[C@H](C)[C@H](NC(=O)[C@H](CCC(N)=O)NC(=O)[C@H](C)NC(=O)[C@H](CCSC)NC(=O)[C@H](CC(C)C)NC(=O)[C@H](Cc1c[nH]cn1)NC(=O)[C@H](C)NC(=O)[C@H](CC(N)=O)NC(=O)[C@H](C)NC(=O)[C@H](C)NC(=O)[C@H](C)NC(=O)[C@H](CCC(N)=O)NC(=O)[C@H](C)NC(=O)[C@H](CCCNC(=N)N)NC(=O)[C@H](CC(C)C)NC(=O)[C@H](CC(N)=O)NC(=O)[C@H](CCCCN)NC(=O)[C@H](C)NC(=O)[C@H](CCCCN)NC(=O)[C@H](C)NC(=O)[C@@H](NC(=O)[C@H](CC(N)=O)NC(=O)[C@H](Cc1ccccc1)NC(=O)[C@H](CC(C)C)NC(=O)[C@H](CC(C)C)NC(=O)[C@H](CC(N)=O)NC(=O)[C@H](CCSC)NC(=O)[C@@H](NC(=O)[C@H](CC(N)=O)NC(=O)[C@@H](NC(=O)[C@@H]1CCCN1C(=O)[C@@H](NC(=O)[C@H](CC(=O)O)NC(=O)[C@H](CC(C)C)NC(=O)[C@H](CO)NC(=O)[C@H](CC(C)C)NC(=O)[C@@H](NC(=O)[C@H](Cc1ccccc1)NC(=O)[C@H](CCCCN)NC(=O)[C@@H](N)[C@@H](C)O)[C@@H](C)O)C(C)C)[C@@H](C)O)[C@@H](C)CC)[C@@H](C)CC)C(N)=O [hUroIII, reference compound] (H-TKFTLSLDVPTNIMNLLFNIAKAKNLRAQAAANAHLMAQI-NH2) | – | – | EC50 (CRF2R; CRF2R EC50): > 100 nM; EC50 (CRF1R; CRF1R EC50): > 1000 nM |
| NDDPPISIDLPFQLLRNMIEMARIENEREQAGLNAKYLAEV-NH2 [compound 258] | ≥ 100 | ≥ 1000 | – |
| NDDPPISIDLPLILLRNMIEMARIENEREQAGLNAKYLAEV-NH2 [compound 269] | ≥ 100 | ≥ 1000 | – |
| NDDPPISIDLPLLLLRNMIEMARIENEREQAGLNAKYLAEV-NH2 [compound 268] | ≥ 100 | ≥ 1000 | – |
| NDDPPISIDLPLQLLRNMIEMARIENEREQAGLNAKYLAEV-NH2 [compound 270] | ≥ 100 | ≥ 1000 | – |
| NDDPPISIDLPQYLLRNMIEMARIENEREQAGLNAKYLAEV-NH2 [compound 265] | ≥ 100 | ≥ 1000 | – |
| NDDPPISIDLPTYLLRNMIEMARIENEREQAGLNAKYLAEV-NH2 [compound 266] | ≥ 100 | ≥ 1000 | – |
| NDDPPISIDLPYYLLRNMIEMARIENEREQAGLNAKYLAEV-NH2 [compound 267] | ≥ 100 | ≥ 1000 | – |
| SEEPPISLDLTFHLLREVLEMARAEQLAQQAHTNARILARV-NH2 [compound 161] | > 100 | > 100 | – |
| SEEPPISLDVPIGLLQEVLEMARAEQLAQQAHSNRKLMEII-NH2 [compound 162] | > 100 | > 100 | – |
| SQEIVLSLDVPIGLLREVLEMTKADQLAQQAHSNRKLLDIA-NH2 [compound 7] | – | – | CRF2R (Emax %) (CRF2R; CRF2R, Emax): (19) %; CRF1R (Emax %) (CRF1R; CRF1R, Emax): (4) % |
| SQEPPISLDLPFELLREVLEMTKADQLAQQAHSNRKLLDIA-NH2 [compound 97] | ≥ 100 | ≥ 100 | – |
| SQEPPISLDLPFGLLREVLEMTKADQLAQQAHSNRKLLDIA-NH2 [compound 103] | ≥ 100 | ≥ 100 | – |
| SQEPPISLDLPFQLLREVLEMTKADQLAQQAHSNRKLLDIA-NH2 [compound 91] | ≥ 100 | ≥ 100 | – |
| SQEPPISLDLPFYLLREVLEMTKADQLAQQAHSNRKLLDIA-NH2 [compound 96] | ≥ 100 | ≥ 100 | – |
| SQEPPISLDLPIGLLREVLEMTKADQLAQQAHSNRKLLDIA-NH2 [compound 93] | ≥ 100 | ≥ 100 | – |
